According to patent publication US20060127423A1, “Organic compounds” (priority 1998, published 2006):
Values after ≈ are worked out from the molar mass of the structure shown.

How the values were obtained:
[1] = Stability of PEG-containing infusion concentrates: degradation products by HPLC; assay type: physicochemical; conditions: ethanol/water 59:41 (w/w), 5 mg/ml, 2-8° C.
[2] = Solubility of epothilone B in various solvent systems; assay type: physicochemical
Method: If not indicated otherwise all solubility data refer to T=22° C.

[3] = Stability of PEG-containing infusion concentrates: degradation products by HPLC; assay type: physicochemical
Method: The stability of aqueous versus nonaqueous polyethyleneglycol infusion concentrates comprising epothilone B at different concentration and various temperatures is determined. Typically, a known amount of epothilone B is dissolved in 1.0 ml of each of the various solvent systems and each solution is sterile filtered and charged to 1 ml white-glass vials with grey rubber stoppers and grey flip-off caps. The stability is analyzed by determining formation of degradation products in each of the infusion concentrates as a function of time and temperature. Each sample is analyzed by HPLC, the sample is prepared by diluting the concentrate with an aqueous medium.

[4] = previously reported; cited from earlier work

C/C(=C\c1csc(C)n1)[C@@H]1C[C@@H]2O[C@]2(C)CCC[C@H](C)[C@H](O)[C@@H](C)C(=O)C(C)(C)[C@@H](O)CC(=O)O1 [epothilone B]
Proportion of degradation products ([1]; 1 month): 0.3 | Proportion of degradation products ([1]; 5 months): 0.3 | Proportion of degradation products ([1]; initial): <0.1 | Solubility ([2]; EtOH/H2O (v/v) 10/90, T=22° C.): 1100 µg/mL (≈ 2170 µM) | Solubility ([2]; EtOH/H2O (v/v) 20/80, T=22° C.): 1300 µg/mL (≈ 2560 µM) | Solubility ([2]; EtOH/H2O (v/v) 30/70, T=22° C.): 4100 µg/mL (≈ 8080 µM) | Solubility ([2]; EtOH/H2O (v/v) 50/50, T=22° C.): 27000 µg/mL (≈ 53200 µM) | Solubility ([2]; EtOH/H2O (v/v) 100/0, T=22° C.): >50000 µg/mL | Solubility ([2]; H2O (pH 6.0), 4° C.): 190 µg/mL (≈ 374 µM) | Solubility ([2]; H2O (pH 6.0), T=22° C.): 160 µg/mL (≈ 315 µM) | Solubility ([2]; H2O, 0.9% glucose, T=22° C.): 160 µg/mL (≈ 315 µM) | Solubility ([2]; H2O, 5% glucose, T=22° C.): 160 µg/mL (≈ 315 µM) | Solubility ([2]; H2O, 5% poloxamer 188, T=22° C.): 230 µg/mL (≈ 453 µM) | Solubility ([2]; H2O, 15% glycerin, T=22° C.): 190 µg/mL (≈ 374 µM) | Solubility ([2]; PEG 300/H2O (v/v) 30/70, T=22° C.): 900 µg/mL (≈ 1770 µM) | Solubility ([2]; PEG 300/H2O (v/v) 50/50, T=22° C.): 10000 µg/mL (≈ 19700 µM) | Solubility ([2]; PEG 300/H2O (v/v) 70/30, T=22° C.): 2500 µg/mL (≈ 4920 µM) | Solubility ([2]; PEG 300/H2O (v/v) 100/0, T=22° C.): 12000 µg/mL (≈ 23600 µM) | Solubility ([2]; PEG 400/H2O (v/v) 30/70, T=22° C.): 800 µg/mL (≈ 1580 µM) | Solubility ([2]; PEG 400/H2O (v/v) 50/50, T=22° C.): 11000 µg/mL (≈ 21700 µM) | Solubility ([2]; PEG 400/H2O (v/v) 70/30, T=22° C.): 2300 µg/mL (≈ 4530 µM) | Solubility ([2]; PEG 400/H2O (v/v) 100/0, T=22° C.): 30000 µg/mL (≈ 59100 µM) | Solubility relative to water ([2]; PEG/water, propyleneglycol/water, or EtOH/water mixtures): significantly higher solubility | Solubility ([2]; Phosphate buffer pH 7.4, 4° C.): 190 µg/mL (≈ 374 µM) | Solubility ([2]; Phosphate buffer pH 7.4, T=22° C.): 160 µg/mL (≈ 315 µM) | Solubility ([2]; Propylene glycol/H2O (v/v) 30/70, T=22° C.): 600 µg/mL (≈ 1180 µM) | Solubility ([2]; Propylene glycol/H2O (v/v) 50/50, T=22° C.): 1600 µg/mL (≈ 3150 µM) | Solubility ([2]; Propylene glycol/H2O (v/v) 70/30, T=22° C.): 10400 µg/mL (≈ 20500 µM) | Solubility ([2]; Propylene glycol/H2O (v/v) 100/0, T=22° C.): 26000 µg/mL (≈ 51200 µM) | Solubility in water ([2]; water at neutral pH): about 160 mg/l | Proportion of degradation products ([3]; PEG 300, 1 mg/ml, 3 months, 2-8° C.): <0.1 | Proportion of degradation products ([3]; PEG 300/water 90:10 (w/w), 15 mg/ml, 7 months, 2-8° C.): <0.1 | Proportion of degradation products ([3]; PEG 300/water 90:10 (w/w), 15 mg/ml, 7 months, 25° C.): 1.0 | Proportion of degradation products ([3]; PEG 400, 1 mg/ml, 3 months, 2-8° C.): <0.1 | Proportion of degradation products ([3]; PEG 400, 1 mg/ml, 3 months, 25° C.): 0.2 | Proportion of degradation products ([3]; PEG 400/water 90:10 (w/w), 1 mg/ml, 3 months, 2-8° C.): <0.1 | Proportion of degradation products ([3]; PEG 400/water 90:10 (w/w), 1 mg/ml, 3 months, 25° C.): 0.4

C/C(=C\c1csc(C)n1)[C@@H]1C[C@@H]2O[C@@H]2CCC[C@H](C)[C@H](O)[C@@H](C)C(=O)C(C)(C)[C@@H](O)CC(=O)O1 [epothilone A]
Aqueous solubility [4]: 940 µg/mL
